PubChem BioAssay (NCI)
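Compound exposure: 48 hours, 5 concentrations, 96-well plates. TGI: concentration producing complete growth inhibition.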

Assays:
Test in all cases: NCI tumour cell line growth inhibition, 48 h
[1] = test system: MCF7 breast
[2] = test system: KM12 colon
[3] = test system: OVCAR-8 ovarian
[4] = test system: HL-60(TB) leukemia
[5] = test system: SF-295 CNS
[6] = test system: ACHN renal
[7] = test system: MDA-N
[8] = test system: MDA-MB-435
[9] = test system: NCI/ADR-RES ovarian
[10] = test system: HCT-116 colon
[11] = test system: PC-3 prostate
[12] = test system: A549 NSCLC
[13] = test system: UACC-257 melanoma
[14] = test system: CAKI-1 renal
[15] = test system: RXF 393 renal
[16] = test system: RPMI-8226 leukemia
[17] = test system: CCRF-CEM leukemia
[18] = test system: LOX IMVI melanoma
[19] = test system: K-562 leukemia
[20] = test system: U251 CNS
[21] = test system: NCI-H460 lung
[22] = test system: TK-10 renal
[23] = test system: T-47D breast
[24] = test system: SN12C renal
[25] = test system: HOP-92 NSCLC
[26] = test system: SK-OV-3 ovarian
[27] = test system: NCI-H226 lung
[28] = test system: NCI-H522 lung
[29] = test system: HT29 colon
[30] = test system: A498 renal
[31] = test system: MOLT-4 leukemia
[32] = test system: MDA-MB-231 breast
[33] = test system: SNB-19 CNS
[34] = test system: NCI-H23 lung
[35] = test system: EKVX NSCLC
[36] = test system: IGROV1 ovarian
[37] = test system: HS 578T breast
[38] = test system: SF-268 CNS
[39] = test system: OVCAR-5 ovarian
[40] = test system: HCC-2998 colon
[41] = test system: SK-MEL-28 melanoma
[42] = test system: SR leukemia
[43] = test system: DU-145 prostate
[44] = test system: OVCAR-4 ovarian
[45] = test system: SK-MEL-2 melanoma
[46] = test system: 786-0 renal
[47] = test system: OVCAR-3 ovarian
[48] = test system: HOP-62 NSCLC
[49] = test system: COLO 205 colon
[50] = test system: HCT-15 colon
[51] = test system: SK-MEL-5 melanoma
[52] = test system: SW-620 colon
[53] = test system: UO-31 renal
[54] = test system: SF-539 CNS
[55] = test system: M14 melanoma
[56] = test system: MALME-3M melanoma

Measured: TGI

CCOC(=O)C(NC(=O)CC(C)C)(NC(C)C)C(F)(F)F (stereo unspecified)
> 100 µM: all assays above
